We go through four compounds from paper PMC12648864 (Biology of Sex Differences, 2025).

One data set in a line: in vivo. The note with it: for AUC(0-t) / AUC(0-inf) / Cmax / Tmax / half-life: Sprague-Dawley, rat, plasma, po, 0.59 mg/kg. From the text: In detail, 6 intact 8-week-old male and female Sprague-Dawley (SD) rats, as well as 6 intact 5-week-old male and female SD rats were purchased from Changyang Xishan Breeding Farm (Beijing Changyang Xishan Breeding Farm, China). All rats were provided standard chow and freely-available drinking water. They were acclimatized for 1 week and fasted overnight before drug administration. The rats were divided into intact and GDX groups, with 6 males and 6 females in each group. In GDX group, testes were surgically removed from male rat at 5 weeks of age, while ovaries were excised from female rat. Following surgery, GDX rats were maintained for an additional […] before testing. All animals, both intact and GDX, were tested at 8 weeks of age.
Blood was collected from orbital vein into a centrifuge tube containing sodium heparin at following time points: 5, 10, 15, 30, and 45 min, as well as 1, 1.5, 2, 4, 6, 8, 12, 24, and 48 h. The collected blood was shaken well and centrifuged at 1500 g for 10 min to separate plasma, then stored at −20 ℃ until use. All experimental procedures were reviewed and approved by the Ethical Committee for Use of Laboratory Animals of the Shanxi Medical University (SYDL2025013).
In detail, 180 µL of plasma was pipetted into a tube, followed by the addition of 20 µL of internal standard (100 ng/mL ephedrine) and the mixture was vortexed for 5 s. Next, 1 mL of acetonitrile precipitation protein was added to this mixture, which was vortexed again for 20 s. Finally, the mixture was centrifuged at 13,000 g for 10 min and the supernatant was transferred to a clean tube. This supernatant was evaporated to dryness under a stream of nitrogen at 35 ℃, then reconstituted in 200 µL of a compound solution consisting of methanol and […] ammonium formate (containing 0.1% formic acid) in a 40:60 (v/v) ratio. The reconstituted supernatant was stored at −80 ℃ until use. Subsequently, the supernatant was passed through a 0.22 μm organic filter before analysis using 1260–6470 HPLC-tandem mass spectrometry (MS/MS).
The mobile phase consisted of A: water + […] ammonium formate + 0.1% formic acid, and B: methanol. The gradient elution program was as follows: 0–1 min, 20% B; 1–6.5 min, 20%−80% B; 6.5–7.5 min, 80% B; 7.5–8.5 min, 80%−20% B; 8.5–12 min, 20% B.
MS conditions: Detection was carried out using an Agilent Jet Stream electrospray ionization source in positive ion mode, operating in multiple reaction monitoring mode. The ion source temperature was 300 ℃, and the nebulizer temperature was 305 ℃. The gas flow rate was maintained at 11.0 L/min, with the capillary voltage of 4000 V.

On the set-up of data set [1]: method as in PMID 27169283. To be noted: ovariectomized rat, plasma; cited from earlier work.
For data set [2] the following is noted: cited from earlier work.
Details of data set [3]: method as in PMID 38276513. The note with it: following gonadectomy; cited from earlier work.
[4] abbreviates: female, GDX female rats, oral 0.59 mg/kg.
Where [5] appears, read: female, intact female rats, oral 0.59 mg/kg.
The mark [6] stands for this setting: male, GDX male rats, oral 0.59 mg/kg.
The mark [7] stands for this setting: male, intact male rats, oral 0.59 mg/kg.

Structures are written as SMILES. Like-named read-outs stand apart in the source and are kept apart here.

As for `O=C1C[C@@H]2OCC=C3CN4CC[C@]56c7ccccc7N1[C@H]5[C@H]2[C@H]3C[C@H]46` [strychnine, Strychnine nitrate], the “delay of time to peak concentration, female later than male rats” value in “in vivo” (GDX group, oral 0.59 mg/kg) was determined as 0.6 h; in “in vivo” (intact group, oral 0.59 mg/kg), 0.05 h. The “peak of plasma concentration in female rats relative to male rats” value came to 3.70 times in “in vivo” (GDX group, oral 0.59 mg/kg) and 3.49 times in “in vivo” (intact group, oral 0.59 mg/kg). Besides, the AUC(0-t) (usually the area under the concentration-time curve up to a stated or last time point) in the data set “in vivo” (setting [4]) is 489 ± 40.6 ng·h/mL; in “in vivo” (setting [5]), 409 ± 58.4 ng·h/mL; in “in vivo” (setting [6]), 152 ± 10.4 ng·h/mL; in the data set “in vivo” (setting [7]) it was 96.8 ± 24.9 ng·h/mL. Besides, the AUC(0-inf) (in general, total exposure, with the tail of the curve extrapolated) amounted to 501 ± 43.5 ng·h/mL in the data set “in vivo” (setting [4]), 403 ± 57.7 ng·h/mL in the data set “in vivo” (setting [5]), 153 ± 10.3 ng·h/mL in the data set “in vivo” (setting [6]) and 97 ± 24.7 ng·h/mL in “in vivo” (setting [7]). In addition, the Cmax (in general, the peak of the concentration-time curve) in the data set “in vivo” (setting [4]) was determined as 48.1 ± 4.06 ng/mL; in the data set “in vivo” (setting [5]), 116 ± 2.7 ng/mL; in “in vivo” (setting [6]), 13 ± 0.6 ng/mL; in the data set “in vivo” (setting [7]), 33.4 ± 2.01 ng/mL. For the same compound, the Tmax (usually the time at which the peak concentration occurs) was 0.63 ± 0.14 h in the data set “in vivo” (female), 1.6 ± 0.22 h in the data set “in vivo” (setting [4]), 0.58 ± 0.13 h in “in vivo” (male) and 1 h in “in vivo” (setting [6]). Moreover, the half-life (in general, how long it takes for the measured level to halve) in “in vivo” (female, t1/2, GDX female rats, oral 0.59 mg/kg) is 9.06 ± 1.82 h; in the data set “in vivo” (female, t1/2, intact female rats, oral 0.59 mg/kg), 5.7 ± 2.6 h; in “in vivo” (male, t1/2, GDX male rats, oral 0.59 mg/kg), 7.68 ± 0.94 h; in the data set “in vivo” (male, t1/2, intact male rats, oral 0.59 mg/kg), 3.84 ± 1.48 h.
Turning to `C[C@H]1O[C@@H](O[C@H]2[C@@H](O)C[C@H](O[C@H]3[C@@H](O)C[C@H](O[C@H]4CC[C@@]5(C)[C@H](CC[C@@H]6[C@@H]5C[C@@H](O)[C@]5(C)[C@@H](C7=CC(=O)OC7)CC[C@]65O)C4)O[C@@H]3C)O[C@@H]2C)C[C@H](O)[C@@H]1O` [digoxin], in data set [1], the “peak digoxin concentration after ovariectomy” value is “significantly lower”.
Regarding `COc1c([C@H]2[C@H](C(=O)Nc3ccnc(C(N)=O)c3)O[C@@](C)(C(F)(F)F)[C@H]2C)ccc(F)c1F` [VX-548], in data set [2] (female rats), the AUC (commonly the area under the concentration-time curve, a measure of exposure) is 1505.8 ± 47.3 ng·h/mL and the clearance rate was 12.5 ± 0.8 mL/min/kg. Besides, in data set [2] (male rats), the AUC is reported as 253.8 ± 6.3 ng·h/mL and the clearance rate is 65.1 ± 1.7 mL/min/kg.
For the compound `NCCCC(=O)O` [γ-aminobutyric acid], in data set [3], the “area under the curve, testosterone-treated male rats versus female rats with similar treatment” value is “higher” and the “renal clearance, testosterone-treated male rats versus female rats with similar treatment” value was “significantly lower”.
